# Test results published in patent publication US20250127168A1, “METHOD FOR PATHOGENS, MICROORGANISMS, AND PARASITES INACTIVATION” (New York Blood Center, Inc., priority 2018, published 2025).
# What was measured:
# [1] = tested on: whole blood or red blood cells concentrate; assay: Quality of treated whole blood and red blood cells concentrate (complete blood count and biochemistry); conditions: 500 μM for 6 hours at RT, neutralized with sodium thiosulfate; storage at 4-6° C., weekly testing
# Procedure: Ten mL samples of whole blood or red blood cells concentrate (RBCC, 25 mL) were treated with 500 μM compound VI for 6 hours at RT. The residual compound VI was neutralized by the same volume of 10 mM sodium thiosulfate for 2 hours at RT. For controls, identical samples of whole blood or RBCC were treated with saline and sodium thiosulfate without compound VI or with saline only without compound VI and/or thiosulfate. Aliquots of whole blood and RBCC from each sample were subjected to complete blood count and biochemistry analysis using IDEXX Procyte Dx Hematology Analyzer and IDEXX Catalyst Dx Chemistry Analyzer according to manufacturer recommendations. The samples were analyzed immediately after the treatment and re-analyzed after one week for whole blood and every week for 5 weeks of storage at 4-6° C. for RBCC. The following parameters were measured: RBC number, hemoglobin, hematocrit, mean corpuscular volume, mean corpuscular hemoglobin, red cell distribution, reticulocyte count, platelets, mean platelet volume, white blood cells, neutrophils, lymphocytes, monocytes, eosinophils, basophils, chloride, potassium, sodium, glucose, and lactate concentrations.
# [2] = Neutralization and covalent sequestration of compound VI by nucleophile-functionalized solid phase agents (LCMS); format: physicochemical
# Procedure: Sulfonylchloride functionalized divinylbenzene crosslinked polystyrene resin (Sigma-Aldrich Cat. no. 498211-5g) was mixed with 5 ml 2M sodium hydrogen sulfide solution (prepared by saturation of sodium sulfide nonahydrate solution in water with hydrogen sulfide) under argon. The mixture was sonicated for ca. 3 min and then stirred at 55° C. for 4 h. After that the resin was filtered and washed three times with deaerated water, there times with deaerated methanol, and two times with deaerated ether. The resin was dried under stream of argon and then under vacuum. Obtained, 1.039 g dry resin (compound XXVIII), thiosulfonate functionalized polystyrene/divinylbenzene resin. An aliquot of compound XXVIII was added to a solution of compound VI, 100 μM in PBS.
# Aminoethyl groups functionalized methacrylate resin (Purolite Ltd, Llantrisant, Wales, UK, Product No. D6195, trade name Chromalite MAM2, 0.5 mmol amino groups per ml wet resin, 68% moisture), 300 mg, was dried by three evaporation from 2 ml dry N,N-dimethylformamide under vacuum at 35° C. […] The load of mercapto groups on the product, compound XXX, was determined using the Elman's procedure (Riener, C. K.; Kada, G.; Gruber, H. J., Anal. Bioanal. Chem., 2002, 373, 266-76) and was 0.21 mmol per gram of wet resin. […]
# Tentagel S NH2 resin, 200 mg (Rapp Polymere GmbH, Tuebingen, Germany, product No. S30132, divinylbenzene cross-linked polystyrene resin grafted with amino group terminated polyethylene glycol) was swollen for couple of hours in 5 ml dry N,N-dimethylformamide and then the excess of solvent was pipetted off Benzotriazol-1-yl-oxytripyrrolidinophosphonium hexafluorophosphate, 151 mg, 2-(4-(triphenylmethylthio)phenyl)acetic acid, 119 mg, and anhydrous 1-hydroxybenzotriazole, 44 mg, were dissolved in 1.2 mL dry N,N-dimethylformamide. […] The mercapto groups load was determined using the Elman's procedure and was 0.12 mmol per gram of dry resin. […]
# [3] = Neutralization of compound X with methyl thiosalicylate (LCMS); format: physicochemical; conditions: 100 μM compound X, 10 mM methyl thiosalicylate, PBS
# Procedure: The rate of neutralization of […] can be determined by plotting of logarithm of compound X concentration, determined by its peak area against the time of incubation.
# [4] = Neutralization of compound X with glutathione; conditions: in presence of glutathione, same conditions
# [5] = tested on: synthetic 23-mer oligoribonucleotide (SEQ ID NO:2); assay: Reactivity toward nucleic acids, mass spectrometry; format: biochemical; conditions: 100 μM oligonucleotide, 100 μM compound, PBS pH 7, room temperature, 6 min
# [6] = tested on: 21-mer synthetic oligodeoxyribonucleotide (SEQ ID NO:1); assay: Reactivity toward nucleic acids, HPLC; format: biochemical; conditions: 10 μM oligonucleotide, 200 μM compound, PBS pH 6.7, 37° C., 6 h
smiles,measurement,setting,value
"CN(CCCCN(C)CCCN1CC1)CCCN1CC1 [Compound VI, N^1,N^4-bis(3-(aziridin-1-yl)propyl)-N^1,N^4-dimethylbutane-1,4-diamine]",cellular or biochemical characteristics of treated blood versus controls,[1],No differences in cellular or biochemical characteristics
same,concentration of compound VI in the mixture,[2]; 100 μM in PBS with mercaptophenyl TentaGel S resin XXXII,time dependent decreasing
same,concentration of compound VI in the mixture,[2]; 100 μM in PBS with mercaptophenyl methacrylate resin XXX,time dependent decreasing
same,concentration of compound VI in the mixture,[2]; 100 μM in PBS with thiosulfonate functionalized resin XXVIII,time dependent decreasing
CN(CCCCN(C)CCCN1CC1)CCCN(C)CCCN1CC1 [Compound X],compound X half-life T1/2,[3],0.277 h
same,half-life of compound X,[4],7.5 h
same,covalent adduct with the oligonucleotide (MS),[5],covalent mono-adduct
same,covalent adducts with the oligonucleotide (HPLC),[6],appearance of covalent adducts
